Values after ≈ are worked out from the molar mass of the structure shown. Where two headings read alike, the source gives them in different places.
Legend:
[1] = tested on: S. aureus ATCC 29213; assay: Susceptibility of bacteria, broth microdilution MIC; type: cell-based; details: Staphylococcus aureus, ATCC29213
Procedure: The antibacterial activity of the compounds of the present invention was tested by the broth microdilution method. The assay was carried out according to the CLSI guidelines for managing the procedures of susceptibility tests: “M7-A7 Methods for Dilution Antimicrobial Susceptibility Tests for Bacteria That Grow Aerobically; Approved Standard-Seventh Edition (2006)”. Test strains were grown on appropriate agar plates overnight. A broth containing the test compound diluted serially 2-fold and diluents were dispensed at 100 μL to each well of a 96-well microplate. As a growth control, a well with a broth not containing the test compound was also prepared. Colonies grown on the plates were suspended in saline, adjusted to 0.5 McFarland (OD625=0.08 to 0.10) using a colorimeter, and then diluted 10-fold with saline. The bacterial suspension was inoculated at 4 μL into each well of the microplate using a bacterial suspension inoculation apparatus. The inoculated microplate was incubated at 35° C. overnight (about 20 hours). The growth condition was observed by the naked eye, and the minimum concentration to inhibit bacterial proliferation was defined as a minimum inhibitory concentration (MIC). The MICs of compounds disclosed herein for E. faecium, Streptococcus pneumoniae and Haemophilus influenzae are shown in Table 2, while for S. aureus in Table 3.

[2] = tested on: Clostridium difficile ATCC 43255; assay: Susceptibility of Clostridium difficile, agar dilution MIC; type: cell-based; details: Clostridioides difficile, ATCC43255, anaerobic
Procedure: The antibacterial activity of the compounds of the present invention against Clostridium difficile clinical isolates was tested by the agar dilution method. The assay was carried out according to the CLSI guidelines for managing the procedures of susceptibility tests “M11-A8, Methods for Antimicrobial Susceptibility Testing of Anaerobic Bacteria; Approved Standard-Eighth Edition. CLSI document (2012)”.
The test strains were spread on supplemented Brucella agar (SBA) plates and grown at 36° C. under anaerobic condition for 42 to 48 hours. The test compound dilutions were prepared with Brucella broth and SBA plates containing dilution of test compound were prepared. As an anaerobic growth control, plates not containing the test compound were also prepared. Colonies grown on plates were suspended with Brucella broth to adjust the turbidity to 0.5 McFarland using a densitometer. Suspension (1-2 μL) of the test strains was inoculated onto each agar surface by using a bacterial suspension inoculation apparatus. After anaerobic incubation at 36° C. for 42 to 48 hours, absence and presence of growth of each strain were examined with unaided eye. The MIC was determined at which a marked reduction occurs in the appearance of growth on the test plate as compared to that of growth on the anaerobic control plates.

[3] = Oral bioavailability (BA) in rats; type: in vivo; details: male, SD, blood; Rat, 2 mg/kg oral vs jugular vein
Procedure: To SD male rats (7 week-old) fasted overnight, a solution of the test compound Captisol® was administered into the jugular vein (3 animals) and a solution of Lutrol® F68 was administered orally (3 animals). The dose of the test compounds was 2 mg/kg body weight of the rat for both administration routes. The amount of Captisol® used was 0.36 mg/kg body weight of the rat. The amount of Lutrol® F68 used was 0.02 mg/kg body weight of the rat. The BA value was calculated by the formula below using the integration value (AUCiv(0-∞)) of the blood concentration extrapolated from time 0 to infinity after administration of both test compounds. The greater a BA value of the compound shown, the higher the oral bioavailability is.

[4] = Oral bioavailability (BA) in monkeys; type: in vivo, Macaca fascicularis; details: male, cynomolgus monkey, blood, 1 mg/kg oral vs jugular vein
Procedure: To male Macaca fascicularis (3 or 4 year-old) fasted overnight, a solution of the test compound Captisol® was administered into the jugular vein (3 animals) and a solution of Lutrol® F68 was orally administered (3 animals). The dose of both test compounds was 1 mg/kg body weight of the monkey. The amount of Captisol® used was 0.18 mg/kg body weight of the monkey. The amount of Lutrol® F68 used was 0.02 mg/kg body weight of the monkey. The BA value was calculated by the formula below using the integration value (AUCiv(0-∞)) of the blood concentration extrapolated from time 0 to infinity after administration of both test compounds. BA(%)=[[(AUCpo(0-∞))/(dose po)]/[(AUCiv(0-∞))/(dose iv)]]×100 The greater a BA value of the compound shown, the higher the oral bioavailability is.

[5] = target: Clostridium difficile DNA gyrase (Clostridioides difficile, UniProt Q18C89); assay: DNA supercoiling inhibition assay; type: biochemical; details: supercoiling of relaxed pBR322 DNA, 60 minutes at 37° C.
Procedure: DNA supercoiling assays (30 μL reaction) were performed in a buffer containing 15 mM Tris-HCl pH 7.5, 13% glycerol, 6 mM MgCl2, 0.1 mg/mL BSA, 70 mM KCl, 1 mM dithioerythritol, 400 ng of DNA substrate (relaxed pBR322 DNA) and different concentrations of test compounds and/or standards. The dilutions of test compounds and standards were prepared in 20% dimethylsulfoxide (DMSO) and added 3 μL/reaction. The reaction was started by adding 2 μL amounts of Clostridium difficile DNA gyrase into the reaction mixtures and reactions were allowed to proceed for 60 minutes at 37° C. A reaction was carried out by adding 3 μL of 20% DMSO instead of test compound as full reaction control, and another reaction was carried out by adding sterile water instead of the enzyme as no reaction control.
Reactions were stopped by the addition of 5 μL of 6×loading dye and were analyzed by electrophoresis through 1.0% agarose gels with 1×TAE running buffer. Gels were run at 60 V for 3 hours, stained with EtBr, and visualized by Gel Doc system (BioRad). Intensity of the supercoiled DNA bands was quantified, and the IC50 of Clostridium difficile DNA gyrase was calculated using Graph Pad Prism.

[6] = tested on: E. faecium ATCC 29212; assay: Susceptibility of bacteria, broth microdilution MIC; type: cell-based; details: Enterococcus faecium, ATCC29212
Procedure: (§1) The antibacterial activity of the compounds of the present invention was tested by the broth microdilution method. The assay was carried out according to the CLSI guidelines for managing the procedures of susceptibility tests: “M7-A7 Methods for Dilution Antimicrobial Susceptibility Tests for Bacteria That Grow Aerobically; Approved Standard-Seventh Edition (2006)”. Test strains were grown on appropriate agar plates overnight. A broth containing the test compound diluted serially 2-fold and diluents were dispensed at 100 μL to each well of a 96-well microplate. As a growth control, a well with a broth not containing the test compound was also prepared. Colonies grown on the plates were suspended in saline, adjusted to 0.5 McFarland (OD625=0.08 to 0.10) using a colorimeter, and then diluted 10-fold with saline. The bacterial suspension was inoculated at 4 μL into each well of the microplate using a bacterial suspension inoculation apparatus. The inoculated microplate was incubated at 35° C. overnight (about 20 hours). The growth condition was observed by the naked eye, and the minimum concentration to inhibit bacterial proliferation was defined as a minimum inhibitory concentration (MIC).

[7] = tested on: Haemophilus influenzae ATCC 49247; assay: as above; type: cell-based; details: ATCC49247
Procedure: as §1

[8] = tested on: Streptococcus pneumoniae ATCC 49619; assay: as above; type: cell-based; details: ATCC49619
Procedure: as §1

[9] = Solubility in water (JP1 / JP2 fluids); type: physicochemical; details: thermodynamic from solid
Procedure: A 10 mmol/L solution of the test compound was prepared in DMSO and dispensed 100 μL of 10 mmol/L DMSO stock solutions into labeled glass tubes in duplicate, one for Japanese Pharmacopeia First Fluid (JP1) and second for Japanese Pharmacopeia Second Fluid (JP2). After evaporation of DMSO from each tube, 500 μL of JP1 and JP2 fluid were added in each tube, respectively. These tubes were sonicated for 1 minute and placed on shaker for 30 minutes with an interval of 30 seconds at every 5 minute. Tubes were placed in dark at room temperature for 1 hour and solution was filtered through membrane filter. The filtrate was diluted 2-fold and 10-fold. The resulting test solutions was analyzed and quantified against the standards using UPLC (standard preparation—10 mmol/L solution in DMSO is serially diluted with 50% aqueous acetonitrile solution to prepare 2 solutions; 100 μmol/L standard solution and 5 μmol/L standard solutions).

[10] = tested on: Staphylococcus aureus; assay: Neutropenic mouse thigh or calf muscle infection model; type: in vivo; details: neutropenic mice, compared with linezolid
Source text: After culture in broth medium (i) suitable diluent of a bacterial suspension of the Staphylococcus aureus strain, or (ii) equivalent mixture of suitable diluent of a bacterial suspension of the Enterococcus faecium strain and a 10% mucin suspension were used as the inoculum. The bacterial suspension was inoculated under anesthesia with a ketamine-xylazine mixture into the thigh or calf muscle of Swiss albino mice or ICR mice (4- to 6-week-old) compromised by the cyclophosphamide administration. The drug was administered to the mice 1 to 8 times at an interval of 3 to 24 hours. The number of bacteria in the thigh or calf muscle was counted for the non-treated group immediately before initial administration of the drug (pre-control), for the non-treated group (post-control) and for the drug-administered group on the next day of administration of the drug and infection. A change in the number of bacteria in the thigh or calf muscle was used as an index of therapeutic effect.

[11] = Change of weight when relative humidity varied stepwise; type: physicochemical
Procedure: The Form I thus obtained was characterized by i) the diffraction pattern obtained from powder X-ray diffraction analysis (CuK, λ=1.54 Å, scan rate=20°/min) (FIG. 2) and ii) the thermogravimetric analysis pattern (TG/DTA pattern) obtained from measurement of sample (3 mg) at heating rate of about 10° C./minute (FIG. 3). […] Further, the pattern of change of weight of the sample was shown (FIG. 4), which was observed when relative humidity was varied stepwise.
The thermogravimetric analysis pattern (TG/DTA pattern) obtained from measurement of sample (3 mg) at heating rate of about 10° C./minute is as depicted in FIG. 6. […] Further, the pattern of change of weight of the sample was shown in FIG. 7, which was observed when relative humidity was varied stepwise.

Chain of Clostridium difficile DNA gyrase (Q18C90 entry or part of it): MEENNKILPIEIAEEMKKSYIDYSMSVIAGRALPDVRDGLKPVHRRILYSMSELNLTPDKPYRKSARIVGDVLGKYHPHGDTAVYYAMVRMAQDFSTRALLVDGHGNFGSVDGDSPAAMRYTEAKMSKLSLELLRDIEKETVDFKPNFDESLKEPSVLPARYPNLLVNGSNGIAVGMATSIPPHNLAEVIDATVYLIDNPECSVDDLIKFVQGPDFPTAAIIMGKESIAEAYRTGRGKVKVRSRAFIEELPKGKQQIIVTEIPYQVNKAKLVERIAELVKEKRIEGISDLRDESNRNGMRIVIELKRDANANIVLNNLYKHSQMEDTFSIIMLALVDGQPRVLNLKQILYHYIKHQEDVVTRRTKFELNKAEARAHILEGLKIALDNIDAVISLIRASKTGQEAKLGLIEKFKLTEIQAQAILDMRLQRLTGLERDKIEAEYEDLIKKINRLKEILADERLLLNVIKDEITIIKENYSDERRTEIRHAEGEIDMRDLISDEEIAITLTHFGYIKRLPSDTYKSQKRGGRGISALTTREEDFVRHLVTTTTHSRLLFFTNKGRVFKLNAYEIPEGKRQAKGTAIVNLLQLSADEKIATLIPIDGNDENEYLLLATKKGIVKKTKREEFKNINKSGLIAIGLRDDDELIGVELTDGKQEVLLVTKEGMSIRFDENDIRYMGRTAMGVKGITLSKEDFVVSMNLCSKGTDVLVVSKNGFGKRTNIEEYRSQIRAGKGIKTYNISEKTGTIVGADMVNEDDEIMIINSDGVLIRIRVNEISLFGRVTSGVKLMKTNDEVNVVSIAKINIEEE
Chain of Clostridium difficile DNA gyrase (Q18C89 entry or part of it): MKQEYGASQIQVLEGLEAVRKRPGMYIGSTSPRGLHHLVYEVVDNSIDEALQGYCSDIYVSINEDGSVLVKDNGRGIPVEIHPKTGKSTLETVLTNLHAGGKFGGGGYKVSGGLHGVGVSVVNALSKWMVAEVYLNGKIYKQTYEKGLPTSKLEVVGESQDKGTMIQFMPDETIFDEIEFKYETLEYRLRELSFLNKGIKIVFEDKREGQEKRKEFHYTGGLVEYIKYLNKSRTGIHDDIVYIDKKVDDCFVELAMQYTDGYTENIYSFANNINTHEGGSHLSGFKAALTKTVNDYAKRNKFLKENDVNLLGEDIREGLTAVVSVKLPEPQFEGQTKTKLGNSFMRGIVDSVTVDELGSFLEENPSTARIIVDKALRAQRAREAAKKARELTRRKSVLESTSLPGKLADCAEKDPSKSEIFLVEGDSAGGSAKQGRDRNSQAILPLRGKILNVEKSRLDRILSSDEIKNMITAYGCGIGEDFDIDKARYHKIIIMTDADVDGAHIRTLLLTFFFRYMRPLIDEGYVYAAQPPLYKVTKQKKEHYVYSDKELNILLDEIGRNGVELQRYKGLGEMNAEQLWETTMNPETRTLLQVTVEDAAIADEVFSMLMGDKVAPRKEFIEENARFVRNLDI

**Q.** For `CCc1[nH]c(C(=O)N[C@@H]2CCN(c3nnc(C(C)O)s3)C[C@@H]2OC)nc1Cl` (mixture of isomers) [Compound No. 3, 4-Chloro-5-ethyl-N-{(3S,4R)-1-[5-(1-hydroxyethyl)-1,3,4-thiadiazol-2-yl]-3-methoxypiperidin-4-yl}-1H-imidazole-2-carboxamide], which MIC [1] is on record?
**A.** 0.5 µg/mL

**Q.** And the MIC [2]?
**A.** 0.125 µg/mL

**Q.** What about the bioavailability [3] of the same molecule?
**A.** 51%

**Q.** What about the bioavailability [4] of the same molecule?
**A.** 100%

**Q.** For `CCc1[nH]c(C(=O)N[C@@H]2CCN(c3nnc([C@@H](C)O)s3)C[C@@H]2OC)nc1Cl` (single isomer, unassigned) [Compound No. 4], which IC50 [5] is on record?
**A.** 14.5 nM

**Q.** What about the MIC [6] of the same molecule?
**A.** 0.25 µg/mL (≈ 0.603 µM)

**Q.** What about the MIC [7] of the same molecule?
**A.** 1 µg/mL (≈ 2.41 µM)

**Q.** What about the MIC [8] of the same molecule?
**A.** 0.25 µg/mL (≈ 0.603 µM)

**Q.** What about the MIC [1] of the same molecule?
**A.** 0.5 µg/mL (≈ 1.21 µM)

**Q.** And the MIC [2]?
**A.** 0.06 µg/mL (≈ 0.145 µM)

**Q.** What about the solubility at 30 min ([9]; Japanese Pharmacopeia First Fluid (JP1), pH 1.2, simulated gastric fluid, read-out: Solubility JP1) of the same molecule?
**A.** 612 µg/mL (≈ 1470 µM)

**Q.** What about the solubility at 30 min ([9]; Japanese Pharmacopeia Second Fluid (JP2), pH 6.8, aqueous buffer, read-out: Solubility JP2) of the same molecule?
**A.** 304 µg/mL (≈ 733 µM)

**Q.** And the bioavailability [4]?
**A.** 92%

**Q.** What about the “therapeutic effect against Staphylococcus aureus (number of bacteria in thigh or calf muscle)” value [10] of the same molecule?
**A.** equivalent to or higher than linezolid

**Q.** For `CCc1[nH]c(C(=O)N[C@@H]2CCN(c3nnc(C(C)(C)O)s3)C[C@@H]2OC)nc1Cl` [Form I, 4-chloro-5-ethyl-N-{(3S,4R)-1-[5-(2-hydroxypropan-2-yl)-1,3,4-thiadiazol-2-yl]-3-methoxypiperidin-4-yl}-1H-imidazole-2-carboxamide], which change of weight [11] is on record?
**A.** ≤ 0.3%

**Q.** Which “weight change due absorption or desorption of moisture” value [11] does the source give for `CCc1[nH]c(C(=O)N[C@@H]2CCN(c3nnc(C(C)(C)O)s3)C[C@@H]2OC)nc1Cl` [Form II, 4-chloro-5-ethyl-N-{(3S,4R)-1-[5-(2-hydroxypropan-2-yl)-1,3,4-thiadiazol-2-yl]-3-methoxypiperidin-4-yl}-1H-imidazole-2-carboxamide] here?
**A.** no weight change
